Here are results for 5 compounds from ChEMBL document CHEMBL1201862, “PubChem BioAssay data set” (2004).

Test systems include A498; NCI-H226; SNB-19; LOX IMVI; OVCAR-4; KM12; HOP-62; 786-0; Malme-3M; SK-MEL-5; UACC-257; SNB-75; ACHN; PC-3; MDA-N; TK-10; HCT-15; A549; OVCAR-3; BT-549.
Holding throughout (assay): inhibition of tumour cell growth, NCI panel, 48 h

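96-well plates; 48 h exposure; 5 concentrations. Endpoints by linear interpolation between flanking doses. Not reached: highest tested concentration assigned. Here, GI50 denotes the concentration required for 50% inhibition of growth.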 The source made the active and inactive calls. Cut-off read from the data, not from the text of the source: active = GI50 up to about 1.1 µM and inactive = higher.

With `COc1ccc(C(NS(=O)(=O)c2ccc(C)cc2)c2c(C(CBr)OC)c3ccccc3n2S(=O)(=O)c2ccccc2)cc1OC` (stereo not given), the GI50 with A498, in the experiment with NCI-H226, in the experiment with SNB-19, in the experiment with LOX IMVI, in the experiment on OVCAR-4 and with KM12 was > 100 µM (inactive) throughout. The GI50 in the experiment on HOP-62 was > 100 µM (inactive); in the experiment with 786-0, > 100 µM (inactive); in the experiment with Malme-3M, > 100 µM (inactive); in the experiment with SK-MEL-5, > 100 µM (inactive); with UACC-257 it was > 100 µM (inactive); in the experiment with SNB-75, 34.7 µM (inactive). The GI50 was > 100 µM (inactive) with ACHN; > 100 µM (inactive) with PC-3; > 100 µM (inactive) in the experiment with MDA-N; > 100 µM (inactive) in the experiment on TK-10; over 100 µM in the experiment on HCT-15; > 100 µM (inactive) in the experiment on A549. Also, the GI50 in the experiment with OVCAR-3 and with BT-549 was > 100 µM (inactive) in each case.

Turning to `CCc1nc(N)nc(N)c1-c1ccc2c(c1)nnn2CCc1ccccc1`, the GI50 in the experiment with A498 was 24.1 µM (inactive); with NCI-H226 it was 38.6 µM (inactive); in the experiment on SNB-19 it was 23.9 µM (inactive); in the experiment with LOX IMVI, 5.16 µM (inactive); with OVCAR-4, 20.8 µM (inactive); in the experiment with KM12 it was 14.1 µM (inactive). The GI50 is 22.2 µM (inactive) with HOP-62; 5.89 µM (inactive) in the experiment with 786-0; 19.5 µM (inactive) in the experiment with Malme-3M; 8.53 µM (inactive) in the experiment on SK-MEL-5; 22.2 µM (inactive) in the experiment on UACC-257; 15.8 µM (inactive) in the experiment on SNB-75. Moreover, the GI50 was 7.23 µM (inactive) with ACHN; 4.63 µM (inactive) with PC-3; 6.1 µM (inactive) with MDA-N; 35.4 µM (inactive) with TK-10; 3.09 µM with HCT-15; 3.09 µM (inactive) in the experiment on A549. The GI50 in the experiment on OVCAR-3 is 16.6 µM (inactive); with BT-549, 22.9 µM (inactive).

Take `NC(=O)c1cc2cc(Cl)cc(Cl)c2o/c1=N\c1ccc(F)cc1`: the GI50 in the experiment on A498 is 19.4 µM (inactive); in the experiment with NCI-H226 it was 18.6 µM (inactive); in the experiment with SNB-19, 16.9 µM (inactive); in the experiment on LOX IMVI it was 27.6 µM (inactive); with OVCAR-4, 23.8 µM (inactive); in the experiment on KM12, 26.5 µM (inactive). Moreover, the GI50 with HOP-62 was 27.6 µM (inactive); in the experiment on 786-0, 12.2 µM (inactive); in the experiment with Malme-3M it was 21 µM (inactive); in the experiment with SK-MEL-5, 16.9 µM (inactive); in the experiment with UACC-257, 19.5 µM (inactive); in the experiment on SNB-75, 14.8 µM (inactive). The GI50 in the experiment on ACHN was 19.5 µM (inactive); with PC-3 it was 19.1 µM (inactive); in the experiment on MDA-N, 22.4 µM (inactive); in the experiment on TK-10, 14.3 µM (inactive); in the experiment on HCT-15 it was 17.3 µM; with A549 it was 19.3 µM (inactive). Further, the figures for the GI50 with OVCAR-3 and in the experiment on BT-549 were 21.2 µM (inactive) and 18.6 µM (inactive), respectively.

`O=c1ccs[nH]1`: the GI50 was 46.8 µM (inactive) with A498; 51.1 µM (inactive) in the experiment on NCI-H226; 32.1 µM (inactive) with SNB-19; 7.26 µM (inactive) in the experiment with LOX IMVI; 16 µM (inactive) with OVCAR-4; 26.7 µM (inactive) in the experiment with KM12. The GI50 with HOP-62 was 17 µM (inactive); in the experiment with 786-0, 6.15 µM (inactive); with Malme-3M, 8.91 µM (inactive); in the experiment with SK-MEL-5 it was 5.78 µM (inactive); in the experiment on UACC-257, 8.91 µM (inactive); in the experiment with SNB-75 it was 16.9 µM (inactive). For the same compound, the GI50 in the experiment on ACHN is 7.05 µM (inactive); in the experiment with PC-3, 12.9 µM (inactive); in the experiment on MDA-N it was 17.5 µM (inactive); in the experiment on TK-10, 13.8 µM (inactive); in the experiment with HCT-15, 11.6 µM; with A549, 19.9 µM (inactive). In addition, the GI50 in the experiment with OVCAR-3 is 8.17 µM (inactive); in the experiment on BT-549 it was 16.8 µM (inactive).

Regarding `Cc1ccc(/N=N/c2c(O)ccc3ccccc23)cc1`, the GI50 with A498 was > 100 µM (inactive); in the experiment with NCI-H226, > 100 µM (inactive); with SNB-19, 95.7 µM (inactive); in the experiment on LOX IMVI, > 100 µM (inactive); in the experiment with OVCAR-4, > 100 µM (inactive); with KM12, 98.6 µM (inactive). Further, the GI50 is 82 µM (inactive) in the experiment with HOP-62; > 100 µM (inactive) in the experiment on 786-0; > 100 µM (inactive) with Malme-3M; > 100 µM (inactive) in the experiment with SK-MEL-5; > 100 µM (inactive) with UACC-257; > 100 µM (inactive) in the experiment on SNB-75. Further, the GI50 in the experiment with ACHN is > 100 µM (inactive); in the experiment with PC-3, 83 µM (inactive); in the experiment on MDA-N, > 100 µM (inactive); in the experiment on TK-10, > 100 µM (inactive); with HCT-15, 64 µM; with A549, > 100 µM (inactive). Also, the GI50 with OVCAR-3 was 32.4 µM (inactive); in the experiment with BT-549, > 100 µM (inactive).
